Measured values taken from ChEMBL document CHEMBL5532651, “HDAC specificity and kinase off-targeting by purine-benzohydroxamate anti-hematological tumor agents” (Eur J Med Chem, 2024).

Tests used:
NAMALVA = assay: Cytotoxicity against human NAMALVA cells assessed as cell growth inhibition at 0.1 to 9.9 uM by MTT assay; format: functional, cell-based; conditions: dose 0.1-9.9 µM, time lower 24.0 hrs, time upper […], TDE = time-dependent effect
Jurkat [1] = assay: Cytotoxicity against human Jurkat cells assessed as cell growth inhibition at 0.05 to 1.2 uM by MTT assay; format: functional, cell-based; conditions: dose 0.05-1.2 µM, time lower 24.0 hrs, time upper […], TDE = time-dependent effect
U-937 [2] = assay: Cytotoxicity against human U-937 cells assessed as cell growth inhibition at 0.7 to 2.5 uM by MTT assay; format: functional, cell-based; conditions: dose 0.7-2.5 µM, time lower 24.0 hrs, time upper […], TDE = time-dependent effect
[3] = biological target: Cyclin-dependent kinase 4 (Homo sapiens) (UniProt P11802); assay: Inhibition of CDK4 (unknown origin) at 100 uM preincubated for 20 mins followed by 33P-ATP addition measured after 2 hrs by HotSpot kinase assay relative to control; conditions: time 140.0 min
U-937 [4] = assay: Cytotoxicity against human U-937 cells assessed as cell growth inhibition at 1.6 to 3.6 uM by MTT assay; format: functional, cell-based; conditions: dose 1.6-3.6 µM, time lower 24.0 hrs, time upper […], TDE = time-dependent effect
[5] = biological target: Phosphatidylinositol 4,5-bisphosphate 3-kinase catalytic subunit alpha isoform (Homo sapiens) (UniProt P42336); assay: Inhibition of PI3Ka (unknown origin) at 100 uM preincubated for 20 mins followed by 33P-ATP addition measured after 2 hrs by HotSpot kinase assay relative to control; conditions: time 140.0 min
Jurkat [6] = assay: Cytotoxicity against human Jurkat cells assessed as cell growth inhibition at 0.02 to 1.3 uM by MTT assay; format: functional, cell-based; conditions: dose 0.02-1.3 µM, time lower 24.0 hrs, time upper […], TDE = time-dependent effect
[7] = biological target: Tyrosine-protein kinase SYK (Homo sapiens) (UniProt P43405); assay: Inhibition of SYK (unknown origin) at 100 uM preincubated for 20 mins followed by 33P-ATP addition measured after 2 hrs by HotSpot kinase assay relative to control; conditions: time 140.0 min
[8] = biological target: Tyrosine-protein kinase JAK2 (Homo sapiens, UniProt O60674); assay: Inhibition of JAK2 (unknown origin) preincubated for 30 mins followed by ATP addition measured after 30 mins by HTRF assay
[9] = biological target: Phosphatidylinositol 4,5-bisphosphate 3-kinase catalytic subunit gamma isoform (Homo sapiens) (UniProt P48736); assay: Inhibition of PI3Kg (unknown origin) at 100 uM preincubated for 20 mins followed by 33P-ATP addition measured after 2 hrs by HotSpot kinase assay relative to control; conditions: time 140.0 min
[10] = biological target: High affinity nerve growth factor receptor (Homo sapiens) (UniProt P04629); assay: Inhibition of TRKa (unknown origin) at 100 uM preincubated for 20 mins followed by 33P-ATP addition measured after 2 hrs by HotSpot kinase assay relative to control; conditions: time 140.0 min
[11] = biological target: Tyrosine-protein kinase JAK3 (Homo sapiens) (UniProt P52333); assay: Inhibition of JAK3 (unknown origin) at 100 uM preincubated for 20 mins followed by 33P-ATP addition measured after 2 hrs by HotSpot kinase assay relative to control; conditions: time 140.0 min
[12] = biological target: Tyrosine-protein kinase BTK (Homo sapiens) (UniProt Q06187); assay: Inhibition of BTK (unknown origin) at 100 uM preincubated for 20 mins followed by 33P-ATP addition measured after 2 hrs by HotSpot kinase assay relative to control; conditions: time 140.0 min
[13] = biological target: Tyrosine-protein kinase JAK1 (Homo sapiens) (UniProt P23458); assay: Inhibition of JAK1 (unknown origin) at 100 uM preincubated for 20 mins followed by 33P-ATP addition measured after 2 hrs by HotSpot kinase assay relative to control; conditions: time 140.0 min
[14] = biological target: Phosphatidylinositol 4,5-bisphosphate 3-kinase catalytic subunit delta isoform (Homo sapiens) (UniProt O00329); assay: Inhibition of PI3Kd (unknown origin) at 100 uM preincubated for 20 mins followed by 33P-ATP addition measured after 2 hrs by HotSpot kinase assay relative to control; conditions: time 140.0 min
[15] = biological target: Phosphatidylinositol 4,5-bisphosphate 3-kinase catalytic subunit beta isoform (Homo sapiens) (UniProt P42338); assay: Inhibition of PI3Kb (unknown origin) at 100 uM preincubated for 20 mins followed by 33P-ATP addition measured after 2 hrs by HotSpot kinase assay relative to control; conditions: time 140.0 min
[16] = biological target: Cyclin-dependent kinase 6 (Homo sapiens) (UniProt Q00534); assay: Inhibition of CDK6 (unknown origin) at 100 uM preincubated for 20 mins followed by 33P-ATP addition measured after 2 hrs by HotSpot kinase assay relative to control; conditions: time 140.0 min
Sequence of Cyclin-dependent kinase 6 (Homo sapiens) (Q00534 whole entry): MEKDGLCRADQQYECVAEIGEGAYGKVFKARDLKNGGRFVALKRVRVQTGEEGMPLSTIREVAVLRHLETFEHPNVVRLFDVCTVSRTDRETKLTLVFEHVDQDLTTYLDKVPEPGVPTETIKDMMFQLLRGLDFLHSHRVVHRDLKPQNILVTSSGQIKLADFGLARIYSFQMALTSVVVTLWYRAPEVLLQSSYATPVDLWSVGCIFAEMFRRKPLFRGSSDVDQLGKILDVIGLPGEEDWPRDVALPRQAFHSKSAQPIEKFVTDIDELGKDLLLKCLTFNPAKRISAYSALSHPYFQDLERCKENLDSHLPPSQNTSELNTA

Sequence of Tyrosine-protein kinase JAK3 (Homo sapiens) (P52333 whole entry): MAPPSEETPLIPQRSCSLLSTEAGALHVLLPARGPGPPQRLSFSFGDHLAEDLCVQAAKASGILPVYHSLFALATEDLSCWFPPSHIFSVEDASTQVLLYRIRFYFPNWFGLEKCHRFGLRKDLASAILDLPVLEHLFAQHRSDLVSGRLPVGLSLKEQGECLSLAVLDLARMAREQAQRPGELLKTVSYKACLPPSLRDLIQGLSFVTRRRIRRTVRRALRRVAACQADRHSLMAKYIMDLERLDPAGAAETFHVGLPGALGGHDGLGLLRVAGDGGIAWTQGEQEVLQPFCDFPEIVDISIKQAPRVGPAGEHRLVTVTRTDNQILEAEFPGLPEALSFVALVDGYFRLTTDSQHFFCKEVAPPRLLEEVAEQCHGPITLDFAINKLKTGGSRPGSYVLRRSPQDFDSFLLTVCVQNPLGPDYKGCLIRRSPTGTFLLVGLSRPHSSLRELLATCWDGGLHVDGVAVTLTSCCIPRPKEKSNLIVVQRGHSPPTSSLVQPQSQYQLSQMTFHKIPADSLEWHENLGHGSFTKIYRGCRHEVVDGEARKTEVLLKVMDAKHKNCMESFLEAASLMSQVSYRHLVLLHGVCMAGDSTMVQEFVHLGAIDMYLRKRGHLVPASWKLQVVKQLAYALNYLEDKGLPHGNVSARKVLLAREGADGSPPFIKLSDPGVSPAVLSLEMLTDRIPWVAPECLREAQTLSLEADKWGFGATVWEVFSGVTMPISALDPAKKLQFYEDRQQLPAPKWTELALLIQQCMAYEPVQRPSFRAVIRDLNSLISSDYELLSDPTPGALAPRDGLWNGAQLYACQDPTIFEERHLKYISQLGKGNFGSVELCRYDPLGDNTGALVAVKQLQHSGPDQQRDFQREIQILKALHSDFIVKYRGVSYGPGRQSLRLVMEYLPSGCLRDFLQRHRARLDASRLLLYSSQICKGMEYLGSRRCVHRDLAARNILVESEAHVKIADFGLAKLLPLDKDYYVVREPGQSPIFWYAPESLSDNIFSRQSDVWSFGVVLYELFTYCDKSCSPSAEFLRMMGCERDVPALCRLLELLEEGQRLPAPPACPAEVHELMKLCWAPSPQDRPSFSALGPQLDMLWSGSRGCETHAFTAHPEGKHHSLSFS
Sequence of Phosphatidylinositol 4,5-bisphosphate 3-kinase catalytic subunit delta isoform (Homo sapiens) (O00329 whole entry, canonical isoform): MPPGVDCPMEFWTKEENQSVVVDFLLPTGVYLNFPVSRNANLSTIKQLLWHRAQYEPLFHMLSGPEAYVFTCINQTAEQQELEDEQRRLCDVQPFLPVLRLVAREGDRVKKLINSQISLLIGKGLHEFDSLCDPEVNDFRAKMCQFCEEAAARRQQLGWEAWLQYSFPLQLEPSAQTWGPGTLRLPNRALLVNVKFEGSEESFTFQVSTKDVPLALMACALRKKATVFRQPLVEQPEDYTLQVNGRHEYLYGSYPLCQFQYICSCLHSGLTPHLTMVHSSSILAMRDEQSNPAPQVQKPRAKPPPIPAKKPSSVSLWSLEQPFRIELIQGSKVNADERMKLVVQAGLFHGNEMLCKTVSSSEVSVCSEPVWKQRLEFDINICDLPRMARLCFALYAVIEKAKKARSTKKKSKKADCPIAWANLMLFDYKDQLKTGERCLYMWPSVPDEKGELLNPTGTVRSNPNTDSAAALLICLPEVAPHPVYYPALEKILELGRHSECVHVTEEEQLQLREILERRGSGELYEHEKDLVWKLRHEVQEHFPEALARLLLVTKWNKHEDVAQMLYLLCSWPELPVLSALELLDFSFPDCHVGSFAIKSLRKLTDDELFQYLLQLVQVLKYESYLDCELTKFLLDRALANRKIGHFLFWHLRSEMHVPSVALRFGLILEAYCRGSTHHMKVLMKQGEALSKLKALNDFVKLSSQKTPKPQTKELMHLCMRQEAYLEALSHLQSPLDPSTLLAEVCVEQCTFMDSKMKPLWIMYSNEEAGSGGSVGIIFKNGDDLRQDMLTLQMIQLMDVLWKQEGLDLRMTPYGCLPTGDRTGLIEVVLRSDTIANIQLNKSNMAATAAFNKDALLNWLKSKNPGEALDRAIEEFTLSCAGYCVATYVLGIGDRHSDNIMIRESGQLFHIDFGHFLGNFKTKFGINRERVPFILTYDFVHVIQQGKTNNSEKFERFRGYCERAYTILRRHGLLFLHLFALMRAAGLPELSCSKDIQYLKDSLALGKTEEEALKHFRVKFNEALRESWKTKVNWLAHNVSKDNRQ
Sequence of Phosphatidylinositol 4,5-bisphosphate 3-kinase catalytic subunit beta isoform (Homo sapiens) (P42338 whole entry, looked up, canonical isoform): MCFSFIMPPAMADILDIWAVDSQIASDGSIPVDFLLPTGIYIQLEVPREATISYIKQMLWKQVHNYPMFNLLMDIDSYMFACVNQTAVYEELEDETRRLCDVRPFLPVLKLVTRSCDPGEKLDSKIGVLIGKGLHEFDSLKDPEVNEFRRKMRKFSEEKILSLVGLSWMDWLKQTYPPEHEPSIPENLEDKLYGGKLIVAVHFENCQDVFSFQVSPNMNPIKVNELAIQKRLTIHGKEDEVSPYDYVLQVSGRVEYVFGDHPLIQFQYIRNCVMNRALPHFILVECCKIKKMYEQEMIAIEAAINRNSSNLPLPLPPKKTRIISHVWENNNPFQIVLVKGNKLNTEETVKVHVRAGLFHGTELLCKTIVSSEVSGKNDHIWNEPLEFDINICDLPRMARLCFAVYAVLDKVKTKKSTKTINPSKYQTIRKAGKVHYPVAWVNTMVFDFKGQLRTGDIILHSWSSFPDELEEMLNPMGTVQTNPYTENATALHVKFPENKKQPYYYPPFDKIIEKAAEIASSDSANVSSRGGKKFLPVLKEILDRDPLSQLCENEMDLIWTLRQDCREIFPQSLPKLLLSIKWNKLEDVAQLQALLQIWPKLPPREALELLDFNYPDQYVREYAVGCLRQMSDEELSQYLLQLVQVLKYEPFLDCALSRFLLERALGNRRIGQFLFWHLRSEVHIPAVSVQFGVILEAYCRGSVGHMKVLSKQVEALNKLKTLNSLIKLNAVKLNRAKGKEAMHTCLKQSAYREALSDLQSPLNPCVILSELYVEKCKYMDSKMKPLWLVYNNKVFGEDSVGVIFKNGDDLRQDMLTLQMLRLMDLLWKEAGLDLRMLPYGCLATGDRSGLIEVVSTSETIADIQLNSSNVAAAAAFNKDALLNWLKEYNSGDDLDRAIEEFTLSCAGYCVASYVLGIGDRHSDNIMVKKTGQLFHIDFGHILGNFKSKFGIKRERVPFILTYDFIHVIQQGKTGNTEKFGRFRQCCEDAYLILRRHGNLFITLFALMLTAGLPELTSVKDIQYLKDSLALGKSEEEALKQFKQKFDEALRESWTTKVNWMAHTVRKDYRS
Sequence of Phosphatidylinositol 4,5-bisphosphate 3-kinase catalytic subunit alpha isoform (Homo sapiens) (P42336 whole entry, canonical isoform): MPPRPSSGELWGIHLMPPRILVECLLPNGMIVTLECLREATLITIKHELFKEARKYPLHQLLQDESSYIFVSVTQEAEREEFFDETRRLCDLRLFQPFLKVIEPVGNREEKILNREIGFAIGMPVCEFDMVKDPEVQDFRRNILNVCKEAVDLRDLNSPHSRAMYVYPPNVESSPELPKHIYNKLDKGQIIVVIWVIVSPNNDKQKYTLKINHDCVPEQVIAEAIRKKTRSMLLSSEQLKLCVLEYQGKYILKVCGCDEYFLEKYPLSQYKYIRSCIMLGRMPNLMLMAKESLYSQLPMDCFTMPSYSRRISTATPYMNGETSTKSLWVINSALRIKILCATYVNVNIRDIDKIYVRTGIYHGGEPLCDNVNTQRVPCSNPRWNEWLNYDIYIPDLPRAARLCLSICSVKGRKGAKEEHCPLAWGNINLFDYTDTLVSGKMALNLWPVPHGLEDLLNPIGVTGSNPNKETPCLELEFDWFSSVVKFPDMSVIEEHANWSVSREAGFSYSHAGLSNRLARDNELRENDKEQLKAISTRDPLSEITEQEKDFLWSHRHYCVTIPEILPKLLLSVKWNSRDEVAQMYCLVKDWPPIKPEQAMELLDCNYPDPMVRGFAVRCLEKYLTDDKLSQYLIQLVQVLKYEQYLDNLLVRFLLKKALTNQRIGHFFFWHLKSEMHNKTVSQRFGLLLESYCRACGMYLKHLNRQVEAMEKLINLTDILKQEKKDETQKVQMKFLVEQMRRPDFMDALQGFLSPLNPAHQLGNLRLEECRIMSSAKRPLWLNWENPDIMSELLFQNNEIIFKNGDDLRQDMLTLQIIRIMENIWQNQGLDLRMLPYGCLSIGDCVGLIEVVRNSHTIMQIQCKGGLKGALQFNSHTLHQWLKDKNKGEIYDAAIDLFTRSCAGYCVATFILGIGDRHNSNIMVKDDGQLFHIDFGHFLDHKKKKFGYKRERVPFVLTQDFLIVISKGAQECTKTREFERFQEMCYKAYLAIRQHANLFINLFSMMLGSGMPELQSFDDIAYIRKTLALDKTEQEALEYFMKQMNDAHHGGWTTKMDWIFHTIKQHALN
Sequence of Cyclin-dependent kinase 4 (Homo sapiens) (P11802 whole entry): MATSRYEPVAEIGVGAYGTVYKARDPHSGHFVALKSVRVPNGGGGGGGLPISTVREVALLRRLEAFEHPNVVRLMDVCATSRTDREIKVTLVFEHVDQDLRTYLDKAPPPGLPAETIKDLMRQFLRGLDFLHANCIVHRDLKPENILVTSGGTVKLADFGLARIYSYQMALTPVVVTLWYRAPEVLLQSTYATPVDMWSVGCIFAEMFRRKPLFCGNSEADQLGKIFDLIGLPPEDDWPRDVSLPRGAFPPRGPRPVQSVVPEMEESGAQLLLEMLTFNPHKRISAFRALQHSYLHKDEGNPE

| inhibition [3] [%] | inhibition [5] [%] | inhibition [7] [%] | IC50 [8] [µM] | inhibition [9] [%] | inhibition [10] [%] | inhibition [11] [%] | inhibition [12] [%] | inhibition [13] [%] | inhibition [14] [%] | inhibition [15] [%] | inhibition [16] [%] | SMILES | inhibition (NAMALVA) | inhibition (Jurkat [1]) | inhibition (U-937 [2]) | inhibition (U-937 [4]) | inhibition (Jurkat [6]) |
| --- | --- | --- | --- | --- | --- | --- | --- | --- | --- | --- | --- | --- | --- | --- | --- | --- | --- |
|  |  |  |  |  |  |  |  |  |  |  |  | COc1ccc(Nc2ncnc3c2ncn3Cc2ccc(C(=O)NO)cc2)cc1 | Tde | Tde | Tde |  |  |
| 73.2 | 29.8 | 71.2 | 34.6 | 44.2 | 99.9 | 94.5 | 99.2 | 63.2 | 51.2 | 62 | 38.6 | O=C(NO)c1ccc(Cn2cnc3c(Nc4ccc(F)c(Cl)c4)ncnc32)cc1 |  |  |  | Tde | Tde |
